We go through four compounds from patent US20250145561A1, “4-SUBSTITUTED-PHENYL ACETAMIDES AND ARYLUREAS AS AGONISTS FOR THE ORPHAN RECEPTOR GPR88” (RESEARCH TRIANGLE INSTITUTE, priority 2022, published 2025).

Each structure is given as a SMILES string.

Usually Emax stands for the greatest response seen or fitted, relative to the assay's reference. Usually EC50 stands for the midpoint of the concentration-response curve.

One assay deals with T1, GPR88 (Homo sapiens, UniProt Q9GZN0).
T1 construct: expressed in transfected cells
T1 sequence (Q9GZN0 whole entry): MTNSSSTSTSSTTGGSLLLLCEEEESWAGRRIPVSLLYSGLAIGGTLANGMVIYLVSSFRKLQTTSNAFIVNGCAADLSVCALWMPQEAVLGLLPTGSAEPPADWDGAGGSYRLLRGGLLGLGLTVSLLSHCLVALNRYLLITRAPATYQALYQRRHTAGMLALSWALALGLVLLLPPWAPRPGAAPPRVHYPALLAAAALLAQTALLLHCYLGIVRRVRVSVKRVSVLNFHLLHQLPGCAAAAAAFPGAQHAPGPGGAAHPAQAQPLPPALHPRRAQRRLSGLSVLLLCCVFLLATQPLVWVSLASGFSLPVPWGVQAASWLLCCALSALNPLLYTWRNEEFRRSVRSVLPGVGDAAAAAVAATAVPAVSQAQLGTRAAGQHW
Put plainly: Lance Ultra TR-FRET cAMP assay using stable PPLS-HA-GPR88 CHO cells. In kind it is cell-based. Conditions: for Emax: CHO; for EC50: stable PPLS-HA-GPR88 CHO cells, value in parentheses beside pEC50. The procedure:
The compounds of the present disclosure offer potent agonism to the orphan receptor GPR88. As such, the compounds of the present disclosure provide therapeutic potential for the treatment of striatal associated disorders such as Parkinson's disease, schizophrenia, and alcohol addiction. All compounds were evaluated for the GPR88 agonist activity in the inventors' previously established in vitro GPR88 Lance TR-FRET cAMP assay. See, supra, Jin et al., 2018, Rahman et al., 2020, and Rahman et al., 2021. As will be described, the TR-FRET signal was converted to fmol cAMP by interpolating from the standard cAMP curve. Fmol cAMP was plotted against the log of compound concentration and data were fit to a three-parameter logistic curve to generate maximum response (Emax) and EC50 values.
Lance™ Ultra cAMP assay using stable PPLS-HA-GPR88 CHO cells. All cAMP assays were performed using the inventors' previously published methods. […] ACS Chemical Neuroscience 2016, 7, 1418-1432, which is incorporated by reference herein with regard to such teaching. Stimulation buffer containing 1× Hank's Balanced Salt Solution (HBSS), 5 mM HEPES, 0.1% BSA stabilizer, and 0.5 mM final IBMX was prepared and titrated to pH 7.4 at room temperature. Serial dilutions of the test compounds (5 μL) and 300 nM forskolin (5 μL), both prepared at 4× the desired final concentration in 2% DMSO/stimulation buffer, were added to a 96-well white ½ area microplate (PerkinElmer). A cAMP standard curve was prepared at 4× the desired final concentration in stimulation buffer and 5 μL was added to the assay plate. Stable PPLS-HA-GPR88 CHO cells were lifted with versene and spun at 270 g for 10 minutes. The cell pellet was resuspended in stimulation buffer and 4,000 cells (10 μL) were added to each well except wells containing the cAMP standard curve. After incubating for 30 min at room temperature, Eu-cAMP tracer and uLIGHT-anti-cAMPworking solutions were added per the manufacturer's instructions. After incubation at room temperature for 1 hour, the TR-FRET signal (ex 337 nm) was read on a CLARIOstar multimode plate reader (BMG Biotech, Cary, NC).
Data Analysis. The TR-FRET signal (665 nm) was converted to fmol cAMP by interpolating from the standard cAMP curve. Fmol cAMP was plotted against the log of compound concentration and data were fit to a three-parameter logistic curve to generate EC50 values (Prism, version 6.0, GraphPad Software, Inc., San Diego, CA).
On the technique in general: Time-resolved FRET reads energy transfer from a long-lived donor to a nearby acceptor.

For assay [1] the following is noted: rats, intraperitoneally, dose-dependent; cited from earlier work.
The conditions of assay [2]: rats, intraperitoneally; cited from earlier work.

Consider `CCOc1ccc(-c2ccc(N(C[C@@H](N)[C@@H](C)OC)C(=O)N[C@@H](C)c3ccccc3)cc2)cc1` [Compound 58, 3-[(2R,3R)-2-Amino-3-methoxybutyl]-1-[(1 S)-1-phenylethyl]-3-{4′-ethoxy-[1,1′-biphenyl]-4-yl}urea], for which, on GPR88, the Emax stood at 102 ± 2% and the EC50 is 676 nM.

As for `CO[C@H](C)[C@H](N)CN(C(=O)N[C@@H](C)c1ccccc1)c1ccc(-c2ccc(OC(C)C)cc2)cc1` [Compound 59, 3-[(2R,3R)-2-Amino-3-methoxybutyl]-1-[(1 S)-1-phenylethyl]-3-[4′-(propan-2-yloxy)-[1,1′-biphenyl]-4-yl]urea], on GPR88, the Emax was 100 ± 4% and the EC50 is 407 nM.

On to `CO[C@H](C)[C@H](N)CN(C(=O)N[C@@H](C)c1ccccc1)c1ccc(C#CCC(C)C)cc1` [Compound 60, 3-[(2R,3R)-2-amino-3-methoxybutyl]-3-[4-(4-methylpent-1-yn-1-yl)phenyl]-1-[(1 S)-1-phenylethyl]urea], for which, on GPR88, the Emax was found to be 103 ± 4% and the EC50 was 363 nM.

As to `COCc1ccc(-c2ccc(N(C[C@@H](N)[C@@H](C)OC)C(=O)[C@@H]3C[C@H]3c3ccccn3)cc2)cc1` [RTI-13951-33], in assay [1], the alcohol intake entry is listed as “significantly reduced” and the alcohol self-administration result is “significantly reduced”. Further, the sucrose self-administration entry in assay [2] is listed as “without effects”.
